Test [1] relates to mitochondrial ATP synthesis. The test can be described thus: Coupling of oxidative phosphorylation / mitochondrial ATP synthesis after heat shock (oxygraph). It counts as cell-based, Saccharomyces cerevisiae. The settings on record: 10 to 100 μM, one hour at 25° C. before 42° C. heat shock. The procedure: The experimental protocol for determining the impairment of oxidative phosphorylation and mitochondrial ATP synthesis in Saccharomyces cerevisiae is provided in Patriarca et al., Bio-chemistry and Cell Biology, 70:207-214, 1992, said reference being fully incorporated herein by reference.
(§1) To S. cerevisiae cells that were maintained at 25° C., varying concentration of N-[2-hydroxy-3-(1-piperidinyl)propoxy]-3-piridinecarboximidoyl chloride maleate was introduced (concentrations between 10 to 100 μM), cells were then incubated for one hour at 25° C. in the presence of N-[2-hydroxy-3-(1-piperidinyl)propoxy]-3-piridinecarboximidoyl chloride maleate. The temperature was then increased to 42° C., and the oxygraph measurements were taken as described in the Patriarca reference.

In another test the test system is hsp26 mRNA. The test can be described thus: Northern blot of hsp26 mRNA in S. cerevisiae. The class given is cell-based, Saccharomyces cerevisiae. The settings on record: 10-100 μM for 5 min. to 1 hour at 25° C. How it is done:
as §1
The cells treated with N-[2-hydroxy-3-(1-piperidinyl)propoxy]-3-pyridine carboximidoyl chloride maleate were tested for concomitant induction of hsp genes, using Northern Blotting procedure. The method of extracting, purifying mRNAs from eukaryotic cells, and analyzing the RNA thus obtained using Northern blotting procedure is well known in the art and described in Maniatis, and Maresca, et al. Archives Medial Research 24: 247-249 (1993), both of the references being fully incorporated herein. The Northern blotting protocol is also described in Example 7 set forth above. Hsp 26 and hsp70 DNA sequences were used as probes.

The next test relates to Hsp60. Description: Western blot of hsp60 in heat shocked H9c2 cells. The class given is cell-based, rat. The procedure: Experiments set forth in this section were conducted to determine whether N-[2-hydroxy-3-(1-piperidinyl)propoxy]-3-pyridinecarboximidoyl chloride maleate acts to increase the expression of molecular chaperon by a cell. The accumulation of different heat shock proteins subsequent to a period of exposure to heat shock alone, and to heat shock in combination with N-[2-hydroxy-3-(1-piperidinyl)propoxy]-3-pyridinecarboximidoyl chloride maleate administration, was examined by adding 10^−5 M of N-[2-hydroxy-3-(1-piperidinyl)propoxy]-3-pyridinecarboximidoyl chloride maleate before, during, or immediately after hyperthermic treatment of heart myogenic cells (H9c2 cells).
The embryonic rat heart-derived cell line H9c2 was obtained from European Collection of Animal cell Cultures (ECACC) (88092904). The cells were maintained at 37° C. in Dulbecco's modified Eagle's medium (DMEM) supplemented with 10% fetal calf serum (GIBCO) in JOUAN C02 thermostat (5% CO2).
Heat shock was performed at 43° C. in CO2 thermostat for the given time intervals (20, 40, 60, 90 and 120 min.). Cells were then taken back to 37° C. for 6 hours and proteins were extracted for SDS-PAGE. When N-[2-hydroxy-3-(1-piperidinyl)propoxy ]-3-pyridinecarboximidoyl chloride maleate was added before heat shock. 10^−5 M N-[2-hydroxy-3-(1-piperidinyl)propoxy]-3-pyridinecarboximidoyl chloride maleate was administered for 16 hours before the stress. In other set of experiments, N-[2-hydroxy-3-(1-piperidinyl)propoxy]-3-pyridinecarboximidoyl chloride maleate was added in 10^−5 M concentration right after heat stress, during the 6 hours recovery period. The experiments were repeated three times.
For SDS-P AGE, cells were grown in 6 cm Petri dishes. The amount of the cells at the start of the experiment was 8×10^5 and were still suconfluent when proteins were extracted. After the 6 hours recovery cells were washed two times in PBS then scrapped from the surface of the dishes in PBS. […]
Protein concentration was determined from 5:1 samples by the Bradford assay (M. M. Braford, Anal. Biochem., 72: 248-254 (1976)) in three parallel. […]
On the technique in general: Immunoblotting shows a protein as a band on a membrane.

The next test has as its system hsp72. The test can be described thus: hsp72 content of K562 tumor cells by flow-cytometry. The class given is cell-based, human. Conditions: for hsp72 expression compared to heat shock alone: 5×10^−5 M during 42° C. for 2 hours, 16 hrs recovery, maleate. The source says:
Human K562 cells, a myeloid tumor cell line derived from a patient with chronic myelogenous leukemia in blast phase (ATCC, CCL243) was used (Lozzio, B C and Lozzio, B B Blood 45:321, 1975).

In the next test the test system is yeast cells. Description: Proliferation of yeast cells. The class given is cell-based.

SMILES strings stand for the structures.

Regarding `O=C(O)/C=C\C(=O)O.OC(CON=C(Cl)c1cccnc1)CN1CCCCC1` (stereo not drawn) [N-[2-hydroxy-3-(1-piperidinyl)-propoxy]3-pyridinecarboximidoyl chloride maleate], the “protection from the impairment of mitochondrial ATP synthesis” value in test [1] is given as 40-60%. For the same compound, the “induction of hsp 26” value with hsp26 mRNA is “induction of hsp 26 was observed”. Moreover, the “amount of hsp60 increased (compared to 37° C. control)” value in the test on Hsp60 (10^−5 M added 16 hours before heat stress, 20 min. heat treatment at 43° C.) is given as “about fivefold”. For the same compound, the “effect on the level of hsp60” value in the test on Hsp60 (added during the recovery phase) is reported as “also effective though to a significantly lesser extent”; with Hsp60 (treatment at 37° C., no heat shock), “no measurable effect”. Besides, the “hsp72 expression compared to heat shock alone” value in the test with hsp72 (listed as N-[2-hydroxy-3-(1-piperidinyl)propoxy]-3-piridinecarboximidoyl chloride maleate) is “enhanced level of hsp72”; in the test with hsp72 (listed as N-[2-hydroxy-3-(1-piperidinyl)propoxy]-3-piridinecarboxymidoyl chloride maleate), “significant increase of hsp72 expression”. In the test with hsp72 (compound alone, no heat shock), the hsp72 levels result was “did not increase hsp72 levels”. The proliferative effect entry in the test on yeast cells was “unexpected proliferative effect”.
